This is an account of results in patent US12570975B2, “Composition for diagnosis or treatment of a condition associated with increased activity of EIF4E comprising an EIF4E inhibitor” (SoVarGen Co., Ltd., priority 2019, dated 2026).

For series [1], the system named is eIF4E. Briefly: eIF4E expression in cerebral cortex, cerebellum and spinal cord after ICV injection of ASO. The conditions noted are these: mouse, in vivo. An excerpt: Each of panels B to D of FIG. 17 and panels E and F of FIG. 18 represents “normal mice”, whereas panel A of FIG. 17 and panels G and H of FIG. 18 represents “FMCD animal models.”
(§1) For this experiment, animal models established using pCIG-mTOR p.C1483Y-IRES-EGFP and pCIG-mTOR p.L2427P-IRES-EGFP of Example 1 were used while animal models established with pCIG-mTOR (WT)-IRES-EGFP […] served as a control. The ASOs were each intracerebroventricularly injected (ICV injection) at a dose of 100-500 μg to the brains of the mice that had been identified to undergo epileptic seizure. From day 3 after ASO injection to up to day 70, 12-hour video were recorded for seizure monitoring 2-3 times a week per mouse.
After intraventricular injection of the ASO candidates to the animal models, eIF4E expression was reduced in the cerebral cortex, the cerebellum, and the spinal cord, with the consequent reduction in seizure frequency.

Series [2] has as its system FMCD and epilepsy animal models (mTOR-p.C1483Y, mTOR-p.L2427P). Briefly: Sucrose preference test, FMCD epilepsy models. The class given is in vivo, mouse. As to conditions: ASO-eIF4E models compared to ASO-control models. As to the method:
Each of mice was habituated for 3-5 days in a cage with two selectable water bottles presented. Thereafter, the mice were each placed in the same cage as the habituation cage at the day of experiment. The mice were presented with two dual bottles, one containing tap water and the other containing 1% sucrose solution. Water and sucrose solution intake was measured after 24 hours and sucrose preference was calculated according to volume of sucrose intake/total volume of fluid intake×100%.
The same sheIF4E as that described in Example 2 was used. Week 2 after sheIF4E injection, the handling was performed in the animals. Week 3 after sheIF4E injection, the animals were subjected to the behavioral tests.
The epilepsy animal models were subjected to the substantially same behavioral abnormality assay as in Example 6.
(§2) Briefly, ASO #77 was administered by ICV injection to the FMCD and epilepsy animal models were generated with the pCIG-mTOR mutant-IRES-EGFP of Example 1. ASO #77 was evaluated for therapeutic potential for neuropsychiatric disorder accompanying the FMCD epilepsy animal models in the substantially same manner as in Example 6.

Series [3] shares this test system. Nature of the series: Social avoidance test, FMCD epilepsy models. The class given is in vivo, mouse. As to conditions: ASO-eIF4E models compared to ASO-control models. As to the method:
The arena was a black box (400×400 mm).
(§3) Experiments were performed on the FMCD and epilepsy animal models (mTOR-p.C1483Y, mTOR-p.L2427P) of Example 7-1 and the control normal animal models (mTOR-WT). The same sheIF4E as that described in Example 2 was used. Week 2 after sheIF4E injection, the handling was performed in the animals. Week 3 after sheIF4E injection, the animals were subjected to the behavioral tests.
(§4) The epilepsy animal models were subjected to the substantially same behavioral abnormality assay as in Example 6. The results are depicted in FIGS. 28 and 29.
as §2

The subject of series [4] is ADK, IRSp53, and CREB1. Briefly: Immunofluorescence of ADK, IRSp53 and CREB1 after ASO injection. As to conditions: week 4-5 after ICV injection. In kind it is in vivo, mouse. As to the method: Week 4-5 after intracerebroventricular injection of ASO into the animal models established using pCIG-mTOR mutant-IRES-EGFP vector of Example 1, the brain was removed, fixed, sectioned, and immunostained.
Immunostaining with antibodies against ADK, CREB1, IRSp53, and eIF4E and Imaging with fluorescence were conducted in the same manner as in Example 2.

For series [5] the following is noted: over 8 weeks after ASO injection, 8-week-old mTOR mutation C57BL/6J mice.
Series [6] concerns C57BL/6J mice. The conditions noted are these: mouse, in vivo. As to the method: In this regard, ASO was administered by ICV injection. The ASO used in this experiment was ASO #77.
(§5) The 3-Chamber test measures social interaction and preference for social novelty. This apparatus consisted of three chambers with dimensions of 12×20×26 cm for the center chamber and dimensions of 14×20×26 cm for the opposite side chambers. Each of the opposite side chambers included a plastic cage (11 cm in diameter, 2.15 cm in height) for an object or stranger mouse in a corner. This experiment consisted of three sessions of habituation (10 min), exploring object/mouse (10 min), and exploring familiar/new mouse (10 min). In the second session, a WT stranger mouse was randomly placed in a plastic cage while the opposite plastic cage was empty. The mouse was allowed to freely explore the whole apparatus. The time spent in each chamber was measured and then used for the subsequent social interaction test. In the last session, a new WT stranger was placed in the empty plastic cage.

For series [7], the system named is C57BL/6J mice. As to conditions: male or female mice injected with ASO.
The test system of series [8] is FMCD and epilepsy animal models (mTOR-p.C1483Y, mTOR-p.L2427P). Nature of the series: 3-Chamber test (social interaction), FMCD epilepsy models. The class given is in vivo, mouse. As to conditions: ASO-eIF4E models compared to ASO-control models. As to the method: as §5
Experiments were performed on the FMCD and epilepsy animal models (mTOR-p.C1483Y, mTOR-p.L2427P) of Example 7-1 and the control normal animal models (mTOR-WT). […]
as §2

Series [9] concerns epilepsy models (mTOR p.C1483Y or mTOR p.L2427P). Briefly: Seizure monitoring after ICV injection of ASO in FMCD epilepsy models. The class given is in vivo, mouse. The conditions noted are these: ICV injection 100-500 μg, day 3 to day 70 after injection. As to the method: as §1
The subject of series [10] is male mice. Briefly: Repeated dose toxicity assay by subcutaneous injection. In kind it is in vivo, mouse. As to conditions: subcutaneous 100 mg/kg, seven times within a month. As to the method:
ASO #16, #21, #27, #35, #75, #77, and #89 selected in Example 4 were each assayed for repeated dose toxicity by subcutaneous injection.
Repeated dose toxicity assay of the […] was conducted by Biotoxtech Co., Ltd. In repeated dose toxicity assay, each ASO sequence was subcutaneously injected at a dose of 100 mg/kg to groups of four male mice seven times in total within a month (days 1, 3, 5, 7, 14, 21, and 28). Two days after the last injection, histopathologic observations were made.

Series [11] relates to C57BL/6J mice. As to conditions: in vivo.
Series [12] concerns FMCD and epilepsy animal models (mTOR-p.C1483Y, mTOR-p.L2427P). The class given is in vivo, mouse. As to the method: Behaviors were recorded and analyzed using EthoVision XT (Noldus).
as §3, §4, §2

The subject of series [13] is C57BL/6J mice. The conditions noted are these: mouse, in vivo. The source holds these as a separate data set.

In the case of “ASO #77: eIF4E-targeting antisense oligonucleotide of SEQ ID NO: 77, 2′-MOE gapmer, all phosphorothioate linkages (antisense GATCCTTCACCAATGTTACA; all phosphorothioate, sugars by position and methylation of C not given here; 2'-MOE gapmer)”, the “eIF4E expression in animal models” value in [1] is “reduce eIF4E expression”. Moreover, the “% sucrose preference” value is reported as “increased” in series [2] and “not changed” in [7]. Further, the “time spent to interact with the stranger mouse (social ability and depression)” value in [3] is listed as “increased”. The “expression of ADK, IRSp53, and CREB1 in the mutation cells” value in series [4] is “rescue of the expression of ADK, IRSp53, and CREB1 to a normal level”. Besides, in series [5], the body weight result is reported as “recovered to normal conditions”. Besides, the “time spent in sniffing zone (index of sociality)” value in [6] is “not changed”. Further, in series [8], the “time spent in sniffing zone (social ability)” value is reported as “increased”. For the same substance, in [9], the seizure frequency entry was “remarkably reduced”. In series [10], the “dead or moribund animals” value was “No dead or moribund animals”. In addition, the “time spent to interact with the stranger mouse (index of sociality and depression)” value in [11] was “not changed”. Besides, the “time spent in center (index of anxiety)” value in series [12] (ASO-eIF4E models compared to ASO-control models) was “increased”; in series [13], “not changed”. The “dyskinesia (behavior test)” value in series [12] (mouse, in vivo) is “no dyskinesia”; in series [13], “no dyskinesia”.
